The values that follow come from ChEMBL document CHEMBL3351663, “Discovery of acylurea isosteres of 2-acylaminothiadiazole in the azaxanthene series of glucocorticoid receptor agonists” (Bioorg Med Chem Lett, 2014).

The IC50 is the concentration needed to halve the response being measured. Broadly, the Ki is the dissociation constant of the complex between target and ligand, obtained from inhibition or displacement. Read a low Ki as higher affinity. As a reminder, the EC50 is the concentration at which the effect is half-maximal. A word on the half-life: it is how long it takes for the measured level to halve.

One series deals with Cytochrome P450 3A4 (Homo sapiens, UniProt P08684). The experiment in a line: Inhibition of CYP3A4 (unknown origin). In kind it is ADME.
In another series the target is T1, Androgen receptor (Homo sapiens, UniProt P10275).
T1 sequence (P10275 whole entry): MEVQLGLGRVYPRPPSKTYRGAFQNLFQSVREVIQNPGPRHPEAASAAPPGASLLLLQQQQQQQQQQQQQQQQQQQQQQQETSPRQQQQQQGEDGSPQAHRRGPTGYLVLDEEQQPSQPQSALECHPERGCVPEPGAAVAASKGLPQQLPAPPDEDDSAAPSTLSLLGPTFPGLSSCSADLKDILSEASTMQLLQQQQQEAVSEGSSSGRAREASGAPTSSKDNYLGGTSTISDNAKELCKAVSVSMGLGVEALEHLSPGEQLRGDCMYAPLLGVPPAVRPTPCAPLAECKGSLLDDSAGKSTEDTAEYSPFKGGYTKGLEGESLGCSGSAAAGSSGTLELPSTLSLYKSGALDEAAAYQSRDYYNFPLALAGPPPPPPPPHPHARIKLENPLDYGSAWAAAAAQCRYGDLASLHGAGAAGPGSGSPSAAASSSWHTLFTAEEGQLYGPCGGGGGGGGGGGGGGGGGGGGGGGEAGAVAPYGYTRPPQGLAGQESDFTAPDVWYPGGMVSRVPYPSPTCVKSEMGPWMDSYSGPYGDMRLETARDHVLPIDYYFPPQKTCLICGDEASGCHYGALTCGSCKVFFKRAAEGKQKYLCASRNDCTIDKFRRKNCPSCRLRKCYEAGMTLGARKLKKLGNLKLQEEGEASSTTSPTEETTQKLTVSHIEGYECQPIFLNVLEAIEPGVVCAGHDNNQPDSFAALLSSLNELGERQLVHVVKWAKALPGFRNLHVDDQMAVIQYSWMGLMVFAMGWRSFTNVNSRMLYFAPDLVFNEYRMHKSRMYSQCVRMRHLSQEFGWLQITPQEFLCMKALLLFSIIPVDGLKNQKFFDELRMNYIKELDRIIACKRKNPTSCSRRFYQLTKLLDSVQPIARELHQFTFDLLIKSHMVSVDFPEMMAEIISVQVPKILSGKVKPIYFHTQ
Put plainly: Binding affinity to androgen receptor (unknown origin).

The next series has as its target Cytochrome P450 2C9 (Homo sapiens, UniProt P11712). The experiment in a line: Inhibition of CYP2C9 (unknown origin). In kind it is ADME.
The target in the next series is T2, Estrogen receptor (Homo sapiens, UniProt P03372).
T2 sequence (P03372 whole entry): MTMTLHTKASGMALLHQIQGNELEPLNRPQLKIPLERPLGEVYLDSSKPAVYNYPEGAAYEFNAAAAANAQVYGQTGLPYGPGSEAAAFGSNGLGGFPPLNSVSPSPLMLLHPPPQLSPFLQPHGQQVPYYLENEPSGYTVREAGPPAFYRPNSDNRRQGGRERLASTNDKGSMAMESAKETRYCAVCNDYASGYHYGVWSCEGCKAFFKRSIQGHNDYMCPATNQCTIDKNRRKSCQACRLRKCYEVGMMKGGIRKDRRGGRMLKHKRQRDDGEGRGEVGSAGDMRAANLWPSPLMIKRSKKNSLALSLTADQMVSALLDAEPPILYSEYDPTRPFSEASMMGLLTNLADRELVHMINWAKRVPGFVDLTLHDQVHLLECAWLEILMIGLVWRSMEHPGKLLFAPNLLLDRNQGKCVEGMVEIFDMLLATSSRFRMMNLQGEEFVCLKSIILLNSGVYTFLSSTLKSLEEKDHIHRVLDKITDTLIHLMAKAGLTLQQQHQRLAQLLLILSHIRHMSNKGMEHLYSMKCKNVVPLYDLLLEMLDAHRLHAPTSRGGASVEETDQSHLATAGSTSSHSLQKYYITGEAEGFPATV
The experiment in a line: Binding affinity to estrogen receptor-alpha (unknown origin).

Another series concerns the target Cytochrome P450 2C19 (Homo sapiens, UniProt P33261). The experiment in a line: Inhibition of CYP2C19 (unknown origin). In kind it is ADME.
The target in series [1] is T3, Glucocorticoid receptor (Homo sapiens, UniProt P04150).
T3 sequence (P04150 whole entry): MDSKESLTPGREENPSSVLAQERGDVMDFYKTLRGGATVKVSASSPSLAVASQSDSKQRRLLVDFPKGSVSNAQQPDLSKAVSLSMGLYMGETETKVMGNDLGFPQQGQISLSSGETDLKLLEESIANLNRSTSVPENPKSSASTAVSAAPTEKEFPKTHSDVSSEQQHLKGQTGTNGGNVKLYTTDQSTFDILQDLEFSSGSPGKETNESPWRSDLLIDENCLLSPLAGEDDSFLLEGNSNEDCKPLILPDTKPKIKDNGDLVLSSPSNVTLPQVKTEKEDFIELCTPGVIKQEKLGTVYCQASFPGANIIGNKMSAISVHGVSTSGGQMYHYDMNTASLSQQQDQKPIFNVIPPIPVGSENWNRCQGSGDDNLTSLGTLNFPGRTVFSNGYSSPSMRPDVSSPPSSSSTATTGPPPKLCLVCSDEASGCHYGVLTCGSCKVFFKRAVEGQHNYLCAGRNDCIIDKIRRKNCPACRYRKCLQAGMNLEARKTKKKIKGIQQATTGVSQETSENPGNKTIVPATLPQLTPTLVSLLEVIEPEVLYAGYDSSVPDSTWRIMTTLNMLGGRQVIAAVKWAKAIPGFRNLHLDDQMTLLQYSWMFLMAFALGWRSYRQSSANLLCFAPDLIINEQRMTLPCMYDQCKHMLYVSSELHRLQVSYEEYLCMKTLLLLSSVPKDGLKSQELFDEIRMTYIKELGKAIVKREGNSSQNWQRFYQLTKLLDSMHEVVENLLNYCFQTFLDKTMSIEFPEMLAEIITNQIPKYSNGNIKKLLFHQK
Put plainly: Agonist activity at glucocorticoid receptor in human HeLa cells assessed as NP-1 transactivation by luciferase reporter gene assay. The format is cell-based. Background: A reporter such as luciferase makes a cellular process visible.

Series [2] in a line: Half life in human liver microsomes. On the technique in general: Microsomes from liver hold many membrane-bound enzymes, among them those of drug oxidation.
The target of series [3] is T3, Glucocorticoid receptor. Also noted: species or system Blood.

Cytochrome P450 3A4, sequence (P08684 whole entry): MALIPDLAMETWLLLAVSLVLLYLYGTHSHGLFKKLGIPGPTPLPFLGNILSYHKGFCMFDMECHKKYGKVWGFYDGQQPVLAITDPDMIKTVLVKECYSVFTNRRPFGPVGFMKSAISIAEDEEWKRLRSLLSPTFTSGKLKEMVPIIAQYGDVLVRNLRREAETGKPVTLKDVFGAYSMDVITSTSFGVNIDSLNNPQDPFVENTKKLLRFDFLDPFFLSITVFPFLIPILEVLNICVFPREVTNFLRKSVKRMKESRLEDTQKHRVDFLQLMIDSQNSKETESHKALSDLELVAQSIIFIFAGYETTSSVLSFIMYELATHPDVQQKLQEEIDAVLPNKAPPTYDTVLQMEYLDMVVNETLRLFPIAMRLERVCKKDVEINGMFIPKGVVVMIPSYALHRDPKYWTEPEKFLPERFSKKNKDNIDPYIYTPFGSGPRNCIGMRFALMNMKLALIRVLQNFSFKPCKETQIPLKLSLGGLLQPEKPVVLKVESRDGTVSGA
Cytochrome P450 2C9, sequence (P11712 whole entry): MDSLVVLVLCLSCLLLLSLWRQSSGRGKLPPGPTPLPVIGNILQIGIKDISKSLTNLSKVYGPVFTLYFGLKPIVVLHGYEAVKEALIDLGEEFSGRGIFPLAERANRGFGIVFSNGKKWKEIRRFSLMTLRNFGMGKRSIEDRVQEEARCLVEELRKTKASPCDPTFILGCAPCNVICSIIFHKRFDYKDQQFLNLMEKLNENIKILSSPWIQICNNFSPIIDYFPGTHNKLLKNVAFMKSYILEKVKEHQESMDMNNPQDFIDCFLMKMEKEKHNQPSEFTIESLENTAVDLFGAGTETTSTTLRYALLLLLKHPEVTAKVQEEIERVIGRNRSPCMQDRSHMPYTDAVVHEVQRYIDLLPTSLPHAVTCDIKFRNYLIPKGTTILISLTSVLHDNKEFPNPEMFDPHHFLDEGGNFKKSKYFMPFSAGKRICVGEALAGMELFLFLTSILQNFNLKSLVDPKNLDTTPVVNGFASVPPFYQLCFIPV
Cytochrome P450 2C19, sequence (P33261 whole entry): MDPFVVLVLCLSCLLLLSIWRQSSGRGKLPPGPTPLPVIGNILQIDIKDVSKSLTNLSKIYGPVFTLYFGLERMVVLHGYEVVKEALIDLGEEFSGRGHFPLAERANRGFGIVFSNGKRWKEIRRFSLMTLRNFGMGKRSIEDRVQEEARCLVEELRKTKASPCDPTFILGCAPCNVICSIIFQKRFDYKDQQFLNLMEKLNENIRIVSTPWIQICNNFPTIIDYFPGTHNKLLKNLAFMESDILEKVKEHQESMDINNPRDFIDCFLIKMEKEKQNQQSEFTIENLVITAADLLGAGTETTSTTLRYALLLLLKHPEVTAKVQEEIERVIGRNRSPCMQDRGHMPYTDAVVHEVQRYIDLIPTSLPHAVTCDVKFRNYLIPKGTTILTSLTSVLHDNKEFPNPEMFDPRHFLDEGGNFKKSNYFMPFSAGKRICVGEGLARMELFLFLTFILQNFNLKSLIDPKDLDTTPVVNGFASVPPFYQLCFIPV

As for `CC(C)(C(=O)NC(N)=O)[C@@H]1c2ccc(-c3ccc(C(=O)N4CCOCC4)cc3)nc2Oc2c(F)cccc21`, the IC50 against Cytochrome P450 3A4 is greater than 40000 nM; on Cytochrome P450 2C9, 14000 nM; at Cytochrome P450 2C19, 11000 nM. Moreover, the Ki is greater than 50000 nM at Androgen receptor and greater than 75000 nM at Estrogen receptor. In addition, the figures for the EC50 on Glucocorticoid receptor [1] and on Glucocorticoid receptor [3] were 5.5 nM and 20.3 nM, respectively. The half-life in series [2] (microsomes) came out at 41 min.

In the case of `CC(C)(C(=O)Nc1nncs1)[C@@H]1c2ccc(-c3ccc(C(=O)N4CCOCC4)cc3)nc2Oc2c(F)cccc21`, the IC50 on Cytochrome P450 3A4 amounted to 300 nM; against Cytochrome P450 2C9 it was 1000 nM; at Cytochrome P450 2C19, 1300 nM. Moreover, the results for the Ki on Androgen receptor and on Estrogen receptor were greater than 50000 nM and greater than 75000 nM, respectively. The EC50 worked out at 10.8 nM on Glucocorticoid receptor [1] and 21.5 nM on Glucocorticoid receptor [3]. This compound also yielded a half-life in series [2] (liver microsomes) of 9.1 min.
